According to publication PMC3798605, “Independent Pathways Can Transduce the Life-Cycle Differentiation Signal in Trypanosoma brucei” (PLoS Pathogens, 2013):

Target: T1, TbPTP1/TbPIP39 (Trypanosoma brucei, UniProt Q38AT7+Q38EW0)
T1 construct: gene Tb10.70.0070; His-TbPTP1 plus GST-TbPIP39 (recoded synthetic gene, pGEX4T1); biophysical preparations described in supplement
T1 sequence (Q38AT7 1-306): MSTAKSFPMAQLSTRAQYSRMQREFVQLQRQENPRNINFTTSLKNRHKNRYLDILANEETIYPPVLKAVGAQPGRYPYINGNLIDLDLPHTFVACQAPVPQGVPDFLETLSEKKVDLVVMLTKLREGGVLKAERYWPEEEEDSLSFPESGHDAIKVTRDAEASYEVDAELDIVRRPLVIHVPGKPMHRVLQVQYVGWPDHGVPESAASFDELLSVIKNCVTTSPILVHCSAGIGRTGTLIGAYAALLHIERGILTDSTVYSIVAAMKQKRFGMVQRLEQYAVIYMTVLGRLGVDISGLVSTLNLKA
T1 sequence (Q38EW0 1-343): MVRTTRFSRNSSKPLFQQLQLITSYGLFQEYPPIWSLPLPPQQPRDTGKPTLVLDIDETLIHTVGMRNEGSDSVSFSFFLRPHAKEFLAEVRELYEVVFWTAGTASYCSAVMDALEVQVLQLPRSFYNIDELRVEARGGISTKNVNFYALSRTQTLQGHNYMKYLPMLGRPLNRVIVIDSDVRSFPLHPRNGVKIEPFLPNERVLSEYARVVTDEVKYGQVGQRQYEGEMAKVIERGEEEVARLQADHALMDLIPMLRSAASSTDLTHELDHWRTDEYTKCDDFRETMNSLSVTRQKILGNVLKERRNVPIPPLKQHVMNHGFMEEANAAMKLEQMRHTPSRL
Assay: SPR, ligand-dependent TbPTP1-TbPIP39 interaction
Assay type: binding
Details: isocitrate-promoted complex formation, indirect evidence; TbPTP1 immobilised

## O=C(O)C[C@H](C(=O)O)[C@@H](O)C(=O)O [isocitrate]
  SPR, ligand-dependent TbPTP1-TbPIP39 interaction: isocitrate, which does not stimulate differentiation, also promoted the interaction between TbPTP1 and wild type
